Source: the supplement of paper PMC10307832

Tests used:
Test in all cases: relative viability (nuclei count vs DMSO), 5 days (fraction); higher = more cells survive
RO-3306 + Crizotinib = compound: C1=CC2=C(C=CC(=C2)C=C3C(=O)NC(=NCC4=CC=CS4)S3)N=C1 [RO-3306] + C[C@@H](Oc1cc(-c2cnn(C3CCNCC3)c2)cnc1N)c1c(Cl)ccc(F)c1Cl [Crizotinib] (partner 1 µM)
Procedure, shortened: (§1)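 Lung cancer cell lines, seeded in 1536-well plates, were treated the following day by pin tool with a single drug or with five library-drug doses (not always all listed) in √10 steps on top of a fixed anchor-drug dose. Cells were fixed and nuclei stained in one step after 5 days, and nuclei were counted. Relative viability is the nuclei count for treated wells divided by that for vehicle wells, reported as medians of duplicate plates.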

[1] = compound: O=S(=O)(c1ccccc1)N(CC(F)(F)F)c1ccc(C(O)(C(F)(F)F)C(F)(F)F)cc1 + COc1cccc2cc(-c3nc([C@H]4CC[C@H](C(=O)O)CC4)n4ncnc(N)c34)[nH]c12 [OSI-027] (partner 0.5 µM)
Procedure, shortened: as §1

[2] = compound: O=S(=O)(c1ccccc1)N(CC(F)(F)F)c1ccc(C(O)(C(F)(F)F)C(F)(F)F)cc1 + Cc1nc(Nc2ncc(C(=O)Nc3c(C)cccc3Cl)s2)cc(N2CCN(CCO)CC2)n1 [Dasatinib] (partner 0.075 µM)
Procedure, shortened: as §1

RO-3306 + Decitabine = compound: C1=CC2=C(C=CC(=C2)C=C3C(=O)NC(=NCC4=CC=CS4)S3)N=C1 [RO-3306] + Nc1ncn([C@H]2C[C@H](O)[C@@H](CO)O2)c(=O)n1 [Decitabine] (partner 2 µM)
Procedure, shortened: as §1

| Cell Line | relative viability (RO-3306 + Crizotinib; first compound 0.01 µM) | relative viability (RO-3306 + Crizotinib; first compound 0.03162 µM) | relative viability (RO-3306 + Crizotinib; first compound 0.1 µM) | relative viability (RO-3306 + Crizotinib; first compound 0.3162 µM) | relative viability (RO-3306 + Crizotinib; first compound 1 µM) | relative viability ([1]; first compound 0.8 µM) | relative viability ([1]; first compound 2.53 µM) | relative viability ([1]; first compound 8 µM) | relative viability ([2]; first compound 0.8 µM) | relative viability ([2]; first compound 2.53 µM) | relative viability ([2]; first compound 8 µM) | relative viability (RO-3306 + Decitabine; first compound 0.01 µM) | relative viability (RO-3306 + Decitabine; first compound 0.1 µM) | relative viability (RO-3306 + Decitabine; first compound 0.3162 µM) | relative viability (RO-3306 + Decitabine; first compound 1 µM) | relative viability (RO-3306 + Decitabine; first compound 0.03162 µM) |
| --- | --- | --- | --- | --- | --- | --- | --- | --- | --- | --- | --- | --- | --- | --- | --- | --- |
| NCI-H23 | 0.493 | 0.304 | 0.462 | 0.56 | 0.425 | 0.62 | 0.711 | 0.594 | 1.03 | 1.04 | 0.907 | 0.338 | 0.334 | 0.341 | 0.301 | – |
| NCI-H322M | 0.861 | 0.999 | 1.1 | 0.95 | 0.953 | 0.61 | 0.501 | 0.506 | 0.261 | 0.267 | 0.288 | 0.591 | 0.721 | 0.717 | 0.762 | 0.675 |
| NCI-H358 | 0.612 | 0.618 | 0.439 | 0.446 | 0.375 | 0.743 | 0.751 | 0.543 | 0.124 | 0.144 | 0.148 | 0.204 | 0.216 | 0.206 | 0.182 | 0.208 |
| NCI-H441 | 0.824 | 0.424 | 0.591 | 0.867 | 0.485 | 0.669 | 0.517 | 0.62 | 0.868 | 0.501 | 0.577 | 0.216 | 0.253 | 0.277 | 0.244 | 0.211 |
| NCI-H460 | 0.958 | – | 1.02 | 0.9 | 0.436 | 0.882 | 0.699 | 0.723 | 0.654 | 0.459 | 0.574 | 0.52 | 0.509 | 0.645 | 0.462 | 0.44 |
| NCI-H520 | 0.877 | 0.423 | 0.772 | 0.825 | 0.748 | 0.298 | 0.21 | 0.281 | 0.235 | 0.211 | 0.26 | 0.568 | 0.469 | 0.501 | 0.554 | 0.542 |
| NCI-H596 | 0.968 | 0.896 | 0.998 | 1.07 | 1.08 | 0.71 | 0.6 | 0.716 | 0.594 | 0.566 | 0.52 | 0.985 | 0.882 | 1.02 | 0.891 | 0.805 |
| NCI-H647 | 1.42 | 0.869 | 1.02 | 1.06 | 1.15 | 0.592 | 0.498 | 0.681 | 0.142 | 0.162 | 0.208 | 0.479 | 0.417 | 0.429 | 0.405 | 0.336 |
| NCI-H650 | 0.56 | 0.648 | 0.694 | 0.691 | 0.703 | 0.533 | 0.498 | 0.532 | 0.368 | 0.425 | 0.479 | 0.292 | 0.283 | 0.259 | 0.352 | 0.33 |
| NCI-H661 | 1.03 | 1.22 | 1.06 | 0.773 | 1.07 | 0.737 | 0.788 | 0.738 | 1.03 | 0.886 | 0.832 | 0.589 | 0.525 | 0.581 | 0.585 | 0.507 |
| NCI-H727 | 1.33 | 0.781 | 0.837 | 1 | 0.964 | 0.669 | 0.474 | 0.631 | 0.408 | 0.302 | 0.325 | 0.834 | 0.891 | 0.888 | 0.846 | 0.751 |
| NCI-H838 | 0.957 | 0.765 | 0.837 | 0.93 | 0.607 | 0.411 | 0.412 | 0.467 | 0.273 | 0.303 | 0.325 | 0.512 | 0.425 | 0.466 | 0.412 | 0.443 |
| NCI-H1355 | 1.21 | 0.947 | 1.1 | 1.12 | 1.14 | 0.409 | 0.366 | 0.453 | 0.771 | 0.661 | 0.663 | 0.395 | 0.353 | 0.355 | 0.362 | 0.341 |
| NCI-H1437 | 1.13 | 0.682 | 0.988 | 1.01 | 1.03 | 0.915 | 0.811 | 0.822 | 0.327 | 0.297 | 0.287 | 0.59 | 0.549 | 0.596 | 0.631 | 0.513 |
| NCI-H1650 | 1.02 | 0.921 | 0.973 | 1.02 | 0.732 | 0.58 | 0.542 | 0.603 | 0.343 | 0.316 | 0.389 | 0.482 | 0.427 | 0.472 | 0.407 | 0.456 |
| NCI-H1651 | 0.865 | 0.834 | 0.88 | 0.881 | 0.84 | 0.742 | 0.793 | 0.703 | 0.486 | 0.434 | 0.306 | 0.671 | 0.587 | 0.664 | 0.58 | 0.562 |
| NCI-H1666 | 1.04 | 0.869 | 0.915 | 0.839 | 0.89 | 0.849 | 0.819 | 0.813 | 0.765 | 0.68 | 0.683 | 0.729 | 0.736 | 0.711 | 0.641 | 0.75 |
| NCI-H1734 | 0.714 | 0.656 | 0.694 | 0.624 | 0.623 | 0.708 | 0.55 | 0.637 | 0.553 | 0.464 | 0.462 | 0.621 | 0.471 | 0.566 | 0.502 | 0.471 |
| NCI-H1755 | 0.934 | 1.02 | 0.875 | 0.846 | 0.811 | 0.712 | 0.657 | 0.691 | 0.373 | 0.368 | 0.429 | 0.73 | 0.728 | 0.706 | 0.707 | 0.739 |
| NCI-H1792 | 1.25 | – | 0.989 | 0.985 | 0.529 | 0.688 | 0.717 | 0.458 | 0.712 | 0.587 | 0.506 | 0.702 | 0.47 | 0.606 | 0.481 | – |
